Earlier results in patent publication US9408867B2, “Antifungal compositions for the treatment of skin and nails” (Veloce BioPharma, LLC, priority 2011, dated 2016).
Read-outs that look alike come from different tables or passages of the source.

Legend:
[1] = human skin in vitro
[2] = 50% solution of DMSO in water

Structure (SMILES): COC1=CC(=O)C[C@@H](C)[C@]12Oc1c(Cl)c(OC)cc(OC)c1C2=O [griseofulvin]
- ratio of penetration ([1]; dissolved in DMSO): 60
- ratio of penetration ([1]; dissolved in alcohol): 3
- ratio of penetration ([1]; dissolved in benzene): 1
- ratio of penetration ([1]; dissolved in dimethylacetamide): 40
- ratio of penetration ([1]; dissolved in dimethylformamide): 7

Structure (SMILES): C[C@]12CCC(=O)C=C1CC[C@@H]1[C@@H]2[C@@H](O)C[C@@]2(C)[C@H]1CC[C@]2(O)C(=O)CO [hydrocortisone]
- rate of penetration [2]: markedly enhanced
